Holding throughout (assay type): in vivo, broilers (Cobb 500 male chicks)
A short description of data set [1]: Foot Pad Lesions (FPL) score in broilers at 42 days. Here is the method:
(§1) An experiment was developed with the purpose of investigating the effect of providing six different sources of Zn, at two levels of supplementation, in diets based on corn, soybean bran and phytase, with respect to performance and balance of Zn in broilers.
(§2) Feed and water were freely provided throughout an experimental period from 1 to 42 days. The shed room temperature was maintained using 250 Watt infrared lamps and curtains on the sides of the shed. Light was provided for 22 hours/day in a scheme of 12 hours of natural light and 10 hours of artificial light. 2,400 lineage Cobb 500 male chicks were used, distributed in a randomized block design housed on the floor in a shed divided into 120 boxes of 1.0×2.0 meters (3,3×6.6 ft), with reused wood shavings bed, for the purpose of increasing the health challenge of birds.
(§3) The birds were randomly distributed in a 6×2 factorial arrangement with six different sources of Zn and two levels of Zn (40 and 80 mg/kg), totaling 12 treatments with 10 repetitions and 20 animals per box (this being considered one experimental unit).
At 42 days of age, during individual weighing of the birds, the quality of the foot pad was determined, using the Foot Pad Lesions (FPL) score according to Berg (1998) and Van Ham et al. (2019), wherein both foot pads of all animals in the experiment were evaluated. Score 0 was given for cushions without any injuries, 1 for discolored cushions but without deep injuries, and score 2 for cushions with deep injuries (ulcers, blisters, etc.). As this is a subjective fact, only one person was responsible for the assessment of the foot pad score. The Injury Score for each experimental unit was calculated according to the following equation, with FPL index varying from 0 to 200 (all birds having score 2).

Data set [2] is described as follows: Zn balance in broilers (Zn in excreta, retained Zn). Here is the method: as §1, §2, §3
At 33 days of age, excreta were collected for 24 hours by placing a plastic canvas on the floor of each box to determine Zn content (mg/kg of dry matter in excreta), retained Zn (consumed mg minus excreted mg), and Zn balance (retained Zn/consumed Zn x 100).

Data set [3] in a line: Broiler performance (feed intake, weight gain, feed conversion) with different Zn sources.
Excerpt: as §1
The experimental feeds used for the initial phase (1 to 21 days) and for growth (21 to 42 days) were formulated based on corn, soybean bran and phytase, following the recommendations proposed by Rostagno et al. (2017) for each phase.
Feed and water were freely provided throughout an experimental period from 1 to 42 days. The shed room temperature was maintained using 250 Watt infrared lamps and curtains on the sides of the shed. Light was provided for 22 hours/day in a scheme of 12 hours of natural light and 10 hours of artificial light. 2,400 lineage Cobb 500 male chicks were used, distributed in a randomized block design housed on the floor in a shed divided into 120 boxes of 1.0×2.0 meters (3,3×6.6 ft), with reused wood shavings bed, for the purpose of increasing the health challenge of birds. […]
The parameters of performance evaluated were feed intake (FI, kg/bird), weight gain (WG, kg/bird), feed conversion (FC, kg/kg).

The mark [4] stands for this setting: level of zinc 40 mg/kg, 1 to 42 days.
The mark [5] stands for this setting: level of zinc 80 mg/kg, 1 to 42 days.

This is an account of results in patent US20230345990A1, “PROCESS FOR PRODUCTION OF CONCENTRATES OF CHELATED MINERALS WITH SOYBEAN AMINO ACIDS AND/OR SOYBEAM PROTEIN, AND RELATED PRODUCT” (Yessinergy Holding S.A., priority 2021, published 2023).

As for `O=S(=O)([O-])[O-].[Zn+2]` [SF, ZnSO4], the “Foot pad lesions % (42 days)” value is recorded as 18.98% in data set [1] (level of zinc 40 mg/kg); 25.09% in data set [1] (level of zinc 80 mg/kg); 22.0% in data set [1] (mean of 40 and 80 mg/kg). Further, the “Percentage of Retained Zinc” value in data set [2] (level of zinc 40 mg/kg) was 19.52%; in data set [2] (level of zinc 80 mg/kg), 47.23%; in data set [2] (mean of 40 and 80 mg/kg), 33.4%. Besides, the “Zinc Excretion” value in data set [2] (level of zinc 40 mg/kg, excreta collected 24 h) came to 10.26 mg/bird; in data set [2] (level of zinc 80 mg/kg, excreta collected 24 h) it was 9.17 mg/bird; in data set [2] (mean of 40 and 80 mg/kg), 9.7 mg/bird. Also, the “Feed Conversion” value in data set [3] (level of zinc 40 mg/kg) is 1.52 kg consumption/kg; in data set [3] (level of zinc 80 mg/kg), 1.51 kg consumption/kg; in data set [3] (level of zinc 100 mg/kg, trend based on results from 40 to 80 ppm of Zn), 1.52 kg consumption/kg; in data set [3] (mean), 1.51 ab kg consumption/kg. The “Feed Consumption” value in data set [3] (setting [4]) turned out to be 4.81 kg/bird; in data set [3] (setting [5]), 4.73 kg/bird; in data set [3] (mean of 40 and 80 mg/kg), 4.77 kg/bird. For the same compound, the “Weight Gain” value is 3.17 kg/bird in data set [3] (setting [4]); 3.14 kg/bird in data set [3] (setting [5]); 3.16 kg/bird in data set [3] (mean of 40 and 80 mg/kg).
